Assay: Dissolution measurements (Distek 2100B USP 2 dissolution system, UV/Vis probe at 324 nm)
Type: physicochemical
Settings: 1 L deionized water, 200 rpm, amount for 20 ppm Compound I
Method: Dissolution Measurements: The performance of the sucrose/Compound I co-crystallized product was compared to that of the Compound I starting material and sucrose/Compound I powder mixtures under standard conditions using a Distek 2100B USP 2 dissolution system. Sufficient amounts of each sample were added in order to create 20 ppm solutions of Compound I. These amounts were 20 mg of pure Compound I, 200 mg of the 10% mixtures, 400 mg of the 5% mixtures and 2.00 g of the 1% mixtures in 1 L of deionized water. A stirring rate of 200 rpm was used.
The concentration of Compound I in solution was monitored continuously as a function of time using a UV/Vis spectrometer probe which measured absorbance at 324 nm.

Concentration in solution (Compound I in solution at 0.083 min): −0.5 ppm
Concentration in solution (Compound I in solution at 2 min): 0.4 ppm
Concentration in solution (Compound I in solution at 5 min): 1.4 ppm
Concentration in solution (Compound I in solution at 10 min): 3.5 ppm
Concentration in solution (Compound I in solution at 25 min): 8.3 ppm
Concentration in solution (Compound I in solution at 50 min): 14.5 ppm
Concentration in solution (Compound I in solution at 100 min): 20.9 ppm
SMILES: CCCNC(=O)C(C)(C)COc1cccc2c1C(N)=NS(=O)(=O)N2 [100% Compound I, 3-(4-amino-2,2-dioxide-1H-benzo[c][1,2,6]thiadiazin-5-yloxy)-2′,2′-dimethyl-N-propylpropanamide]

From US11993821B2, “Co-crystallized sweeteners” (FIRMENICH SA, priority 2012, dated 2024)
